PubChem BioAssay (NCI)
“And” between values parts separate entries of the source, which are not always exact repeats. Equal values may be shown once.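 How tested: cells in 96-well plates exposed to compound for 48 hours at five concentrations. GI50 marks 50% less growth. At the TGI there is no net growth.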 *1 amine or outer side, *2 acyl side, *3 side chain or, on linkers, in order; H or OH if unused. Where a SMILES comes first, the peptide text is derived from it. [ ]: non-standard residue; d: D form. X56 = CC[C@H](C)[C@H](OC(=O)[C@@H](C)[C@@H](CC)N[*:1])C(=O)[*:2]; X32 = C[C@H](N[*:1])C(=O)C(C)(C)C(=O)[*:2]; NMeY = CN[C@@H](Cc1ccc(O)cc1)C(=O)O; NMeL = CN[C@@H](CC(C)C)C(=O)O; NMeV = CN[C@H](C(=O)O)C(C)C

Tests used:
Assay in all cases: growth of human tumour cells (NCI), 48 h
[1] = system: SR leukemia
[2] = system: SK-MEL-2 melanoma
[3] = system: SK-MEL-28 melanoma
[4] = system: OVCAR-8 ovarian
[5] = system: DU-145 prostate
[6] = system: MDA-MB-231 breast
[7] = system: IGROV1 ovarian
[8] = system: LOX IMVI melanoma
[9] = system: 786-0 renal
[10] = system: NCI-H226 lung

| Compound | GI50 [1] [µM] | TGI [1] | GI50 [2] [µM] | TGI [2] | GI50 [3] | TGI [3] [µM] | GI50 [4] [µM] | TGI [4] [µM] | GI50 [5] [µM] | TGI [5] [µM] | GI50 [6] [µM] | TGI [6] [µM] | GI50 [7] [µM] | TGI [7] | GI50 [8] [µM] | TGI [8] [µM] | GI50 [9] [µM] | TGI [9] | GI50 [10] [µM] | TGI [10] |
| --- | --- | --- | --- | --- | --- | --- | --- | --- | --- | --- | --- | --- | --- | --- | --- | --- | --- | --- | --- | --- |
| CCOC(=O)c1cc(C(=O)c2cc(OC)c(OC)c(OC)c2)n2ccccc12 | 0.041 | > 100 µM | 0.169 | > 74.8 µM | 6.09 µM | > 100 | 0.259 | > 100 | 0.175 | > 100 | 2.81 | > 100 | 2.96 | > 100 µM | 0.133 | > 100 | 0.739 | > 42.7 µM | 19.3 | > 100 µM |
| O=C(Nc1ccccc1)Nc1cccc(Oc2nnc(Cl)c3ccccc23)c1 | 1.93 | 8.26 µM | 3.9 | 13.2 µM | 3.57 µM | 12.7 | 2.6 | 6.53 | 3.01 | 10.5 | 4.76 | 12.3 | 3.32 | 7.92 µM | 3.46 | 6.8 | 3.6 | 8.18 µM | 1.95 | 9.25 µM |
| CC[C@H](C)[C@@H]1OC(=O)[C@@H](C)[C@@H](CC)NC(=O)[C@H](C)NC(=O)C(C)(C)C(=O)[C@H](C)NC(=O)[C@H](Cc2ccc(OC)cc2)N(C)C(=O)[C@H](C(C)C)N(C)C(=O)CNC(=O)[C@H](CC(C)C)N(C)C(=O)CNC1=O (cyclo(A[X56]G[NMeL]G[NMeV][NMeY](Me)[X32])) | 0.063 | 1.06 µM and 0.6 µM | – | 0.438 µM and 2.68 µM | 0.0727 µM and < 0.0164 µM | 0.165 | 0.0335 | 1.45 | – | 7.04 | – | 0.792 | 0.0193 | 0.306 µM and 0.102 µM | 0.0392 | – | 0.0675 | 0.48 µM and 0.233 µM | 0.0731 | 3.75 µM and 1.06 µM |
| C=C1C(=O)O[C@H]2[C@H]1CC/C(COC(=O)c1ccccc1)=C\CC[C@@]1(C)O[C@@H]21 | 0.35 | 86.8 µM | 1.94 | 4.02 µM | 1.74 µM | 3.71 | 2.28 | 9.28 | 1.06 | 2.29 | 1.69 | 4.36 | 0.787 | 2.66 µM | 1.32 | 2.74 | 1.46 | 3.08 µM | 1.62 | 3.74 µM |
| Fc1ccc2[nH]cc(SSc3c[nH]c4ccc(F)cc34)c2c1 | 2.29 | 11.3 µM | 3.62 | 17 µM | 5.71 µM | 20.3 | 5.73 | 42.8 | 11.6 | 31.1 | 4.17 | 26.8 | 5.35 | 20.8 µM | 3.18 | 17.4 | 6.8 | 24.8 µM | 2.7 | 7.86 µM |
| COc1ccc2c(c1)/C(=N/OC(C)=O)c1c-2c(=O)[nH]c2ccccc12 | 6.63 | 33.1 µM | 13.6 | 29 µM | 12.7 µM | 26.6 | 14.7 | 31.8 | 10.6 | 25.3 | 13 | 27.3 | 1.52 | 11.8 µM | 14.8 | 29.4 | 15.9 | 43.6 µM | 14.3 | 29.8 µM |
